{
  "source": "patent US12533425B2",
  "about": "“Methods and systems using peptides for targeting and mapping human nerves in image guided surgery, diagnostics and therapeutic delivery” (ALUME BIOSCIENCES, INC., priority 2019, dated 2026)",
  "key": {"[1]": {"test_system": "human laryngeal nerve sections", "assay": "Dose response of FAM-HNP401 by topical application on human nerve sections, confocal", "conditions": "low concentration (10 μM)", "method": "Determination of optimal dose response by topical application of FAM-HNP401 on human laryngeal nerve sections at final concentration of 375 μM (A), 100 μM (B), 50 μM (C), 10 μM (D) and 1 μM (E), imaged with confocal microscopy with identical parameters and levelled equally for comparison. **brightened 2 fold for viewing.\nDose response data set of FAM-HNP401 on human nerve tissue (FIGS. 25:A-E) was acquired with 488 nm laser line, 10 μm sections on glass at 10× magnification, 0.45 NA air objective lens. Gain set to 40, power set to 3% of laser power, pixel dwell value of 1.2 μs, aperture size of 1.1 μm and a pixel size of 0.3 μm/px with a 2 k by 2 k size image.\nHuman peripheral nerves (typically sural) were obtained from patients undergoing nerve resection procedures. Human nerves from prostate gland of two patients were acquired under Moores Cancer Centre Biorepository IRB protocol number 090401. Tissue were sectioned and mounted on glass slides or Cryojane tape. Tissue sections were placed in a humidifier chamber for 30 min before application of the peptide solution. Peptides were diluted to appropriate concentration in 0.5×HBSS prior to topical application. 50 μl of peptide solution of with known concentration (1 μM to 375 μM) were applied to 10 μm nerve sections on tape or slides and incubated for 30 minutes in a humidifier chamber. After incubation with peptide nerve sections were washed with twice with 0.5×HBSS and once with 1×PBS. A cover-slip was applied and slides were imaged immediately on either a Zeiss Lumar dissecting scope of Nikon A1 confocal microscope. For confocal imaging tissue sections of 10 μm thickness were imaged with 488 nm laser excitation 515 (25) and a 10× air objective and a 0.26 µm/pixel size."}, "[2]": {"assay": "Mass spectroscopy analysis of urine after injection of nerve binding peptides"}, "[3]": {"assay": "Stability of peptides in ex-vivo human plasma (LC-MS)", "conditions": "37° C., 5 min vs 2 hours", "experimental": "FIGS. 28A-28F: Stability of peptides in ex-vivo human plasma and cerebrospinal fluid from rats. […] An equal volume of 1:1 acetonitrile:water with 2% acetic acid is added to precipitate the protein matter, supernatant is extracted for analysis by LC-MS on a C18 reverse phase column with gradient of 9:1 H2O+0.05% TFA:Acetonitrile+0.05% TFA to 1:9 H2O+0.05% TFA:Acetonitrile+0.05% TFA in 20 min.\nThe bladder was drained with a syringe and sutured to avoid spillage and contamination around prostate. […] Stability of FAM-HNP401 in human plasma at 5 minutes and 2 hours was determined by incubation of peptide dye conjugate in human serum prior to analysis by mass spectrometry."}, "[4]": {"test_system": "autonomic nerves isolated from human prostate glands", "assay": "Topical application on sections of nerves from human prostate gland", "type": "binding", "conditions": "topical 100 μM, 10 μm sections, two patients", "experimental": "FAM-HNP401 and FAM-NP41 were then tested topically for binding to autonomic nerves, isolated from excised prostate glands of two human patients (FIGS. 12 and 13). […] Labelled fiber were confirmed as nerve using anti-neurofilament antibody SMI312 (red) and DAPI (blue) to show nuclear labeling (FIG. 12C). H&E staining was also done to confirm label tissue as nerve (FIG. 12D). Similar staining was obtained for peripheral sensory anti-brachial cutaneous nerve isolated from a human arm (FIG. 12E-H).\nFAM-HNP401 and FAM-NP41 were tested for binding to autonomic nerves, isolated from the prostate glands of two human patients (FIGS. 19 and 29). […] Quantitation was not done because only 2 patient samples were available for testing as nerve resection during radical prostatectomy is only performed in instances of gross capsular invasion. Labelled fibers were confirmed as nerve using anti-neurofilament antibody SMI312 (red) with DAPI (blue) to show nuclear labeling (FIG. 19C). H&E staining also confirmed label tissue as nerve by histology (FIG. 19D). […] Similar staining using FAM-HNP401 was obtained for another sensory nerve (anti-brachial cutaneous) isolated from human arm showing the broad nerve binding activity of HNP401 (FIGS. 19E-H)."}, "sciatic nerve": {"test_system": "sciatic nerve", "assay": "In-vivo fluorescence imaging of sciatic nerve in mice after i.v. injection of FAM-labelled peptides", "set-up": "species or system mouse", "conditions": "450 nmols i.v.", "method": "In-vivo fluorescence image of sciatic nerve of 6 month old SKH1-Elite mice injected i.v. with 450 nmols of FAM-HNP401 (A) or FAM-NP41 (B) and imaged on the Lumar imaging scope 2 h post injection. […] Each mouse was injected i.v. with 100 nmol of FAM-HNP401 prior to blood collection at 1 min, 10 min, 20 min, 30 min, 1 h and 2 h timepoints (H).\nIn-vivo fluorescence image of sciatic nerves from 6 month old SKH1 mice that had been previously intravenously injected with 450 nmols of FAM-HNP401 [˜48.4 mg/kg] (A) or FAM-NP41 [˜39 mg/kg] (B). […] Each mouse was injected intravenous with 100 nmol [˜11 mg/kg] of FAM-HNP401 prior to blood collection at 1 min, 10 min, 20 min, 30 min, 1 h and 2 h time points."}, "[5]": {"test_system": "rat prostate cavernosal nerve", "assay": "In-vivo labelling of rat prostate and sciatic nerve", "conditions": "i.v., FAM-labelled peptide", "experimental": "FIG. 6: Fluorescent labeling of rat prostate cavernosal nerve in live rats.\nEither 150 or 450 nmoles nmoles of fluorescein labeled synthetic peptides were injected intravenously into mice. After a 2 hour waiting period for washout of nonspecific binding, mice were anesthetized and skin incisions were made over the dorsal surface of the hind legs to expose the sciatic nerve. Brightfield and fluorescent images were obtained with a dissecting microscope using Metamorph software (FIG. 1). Quantitation of fluorescence of nerves and adjacent non-nerve tissue was performed with Image J (FIG. 2). Peptides were also topically applied to human nerve sections. […]\nFollowing anesthesia with intra-peritoneal injection of ketamine (80 mg/kg) and midazolam (40 mg/kg), FAM-NP41 or its variants were administered into mice retro-orbitally. […] The autonomic nerve along the cavernosal vessel in the prostate was imaged and recorded using a custom-made surgical imaging system. This system is a modified from Olympus MVX10 scope capable of hi-resolution fluorescence, RGB reflectance and realtime overlay with zoom from 0.6 to 5.7 cm field of view. ImageJ was used for quantitative analysis of nerve contrast for each peptide dye conjugate tested. Images of autonomic nerve in prostate were selected from the recorded files and magnified 300-400% prior to selection of ROI and measurement. […]"}, "mouse facial nerve": {"test_system": "mouse facial nerve", "assay": "Topical application on ex-vivo mouse facial nerve with surrounding muscle", "type": "binding", "conditions": "topical 375 and 100 μM, ex-vivo tissue"}, "human sural nerve": {"test_system": "human sural nerve", "assay": "Topical application of FAM-labelled peptides on sections of human sural nerve and temporalis muscle", "type": "binding", "text": "To determine the affinity of phage selected peptides for binding to human nerve they were chemically synthesized by solid-phase synthesis and labeled with fluorescein at the C-terminus via a GGC linker. Peptides were topically applied to sectioned human sural nerve and human temporalis muscle to determine nerve to muscle contrast. […] To confirm binding and contrast of HNP401 for additional nerve types binding was compared in nerve and muscle with both HNP401 and NP41 on facial brachial plexus nerve (FIG. 9). […] FAM-HNP401 was additionally tested topically on ex-vivo tissue for labeling of mouse facial nerve with surrounding muscle (FIG. 10, J-M).\nTo test the affinity of selected phage display peptides for binding to human nerves, they were chemically synthesized by solid-phase synthesis and labeled with fluorescein at the C-terminus. Peptides were topically applied to sections of surgically harvested human sural nerve and temporalis muscle to determine nerve to muscle contrast for selected peptides and controls (FIG. 23). […] To quantify differential binding to nerve versus muscle, fluorescence signal intensity was measured for ROIs from the perineurium of select nerves and human temporalis muscle.\nTo enhance and attempt to determine the core binding domain of HNP401, systematic deletion of two amino acids from the C or N terminus was performed (see, for example, FIG. 30) followed by binding analysis on human sural nerve sections (FIG. 20). In each case nerve binding and signal intensity was normalized to the parent FAM-HNP401 peptide (FIG. 20J).\nImage J was used to analyze and compare images acquired using the confocal microscope and the Lumar dissecting scope. For each experimental set where probes were compared, we kept the acquisition parameters identical so as to directly compare the data obtained. […] All raw image files for a given experimental cohort were loaded at the same time into Image J as 16-bit tiff images. We then levelled the image for tissue treated with FAM-HNP401. Once these levels were set, the settings are propagated to all images in one step using Image J. The brightest image is set as the benchmark for all other images in the cohort to avoid saturating when the leveling is propagated."}},
  "note": "Entries after “also recorded” stand apart in the source; their conditions may differ. Residues, ends and D or L forms follow the SMILES beside them. *: point of attachment. Fluorescein(5-Mal) = O=C1OC2(c3ccc(O)cc3Oc3cc(O)ccc32)c2ccc(N3C(=O)CC(*)C3=O)cc21",
  "data": [
    {"smiles": "CC(=O)N[C@@H](CO)C(=O)NCC(=O)N[C@@H](CCC(N)=O)C(=O)N[C@H](C(=O)N1CCC[C@H]1C(=O)N[C@@H](Cc1c[nH]c2ccccc12)C(=O)N[C@@H](CCC(=O)O)C(=O)N[C@@H](CCC(=O)O)C(=O)N1CCC[C@H]1C(=O)N[C@@H](Cc1ccc(O)cc1)C(=O)N[C@@H](Cc1ccc(O)cc1)C(=O)N[C@H](C(=O)N[C@H](C(=O)N[C@@H](CCCCN)C(=O)N[C@@H](CCCCN)C(=O)N[C@@H](CO)C(=O)N[C@@H](CO)C(=O)NCC(=O)NCC(=O)N[C@@H](CSC1CC(=O)N(c2ccc3c(c2)C(=O)OC32c3ccc(O)cc3Oc3cc(O)ccc32)C1=O)C(N)=O)C(C)C)C(C)C)C(C)C", "note": "(stereo partly shown) [FAM-HNP401] (Ac-SGQVPWEEPYYVVKKSSGGC(Fluorescein(5-Mal))-NH2)", "values": [
      {"measurement": "structures of nerve bound (confocal imaging)", "setting": "[1]", "result": "binding of peptide to non-axonal structural components of nerve; also recorded: excluded from axons"},
      {"measurement": "structures of nerve bound (confocal imaging)", "setting": "[1]; listed as FAM-HMP401", "result": "does not bind axons, but preferentially binds the perineurium"},
      {"measurement": "structures of nerve bound (confocal imaging)", "setting": "[1]; listed as HNP401-FAM", "result": "binds epineurium, perineurium and endonerium but not axons"},
      {"measurement": "metabolism of peptide detected in urine", "setting": "[2]", "result": "partially metabolized"},
      {"measurement": "stability in human plasma", "setting": "[3]", "result": "remain intact; also recorded: stable"},
      {"measurement": "fluorescent signal in human autonomic (cavernosal) nerves compared to FAM-NP41", "setting": "[4]", "result": "significantly higher fluorescent signal"},
      {"measurement": "nerve to surrounding muscle contrast", "setting": "sciatic nerve; imaged 2 h post injection, SKH1 mice", "result": "5.79±0.81"},
      {"measurement": "increase in sciatic nerve fluorescence intensity compared to NP41", "setting": "sciatic nerve; mice", "result": 2.3, "unit": "fold"},
      {"measurement": "signal intensity for in-vivo binding to mouse sciatic nerve compared to FAM-NP41", "setting": "sciatic nerve; mice", "result": 2.3, "unit": "×"},
      {"measurement": "fluorescent labeling of rat prostate and sciatic nerve in live rats", "setting": "[5]", "result": "highlighted"},
      {"measurement": "labeling of mouse facial nerve versus surrounding muscle", "setting": "mouse facial nerve", "result": "poor contrast; also recorded: did not perform as well as FAM-NP41"},
      {"measurement": "nerve to muscle contrast", "setting": "human sural nerve; human sural nerve vs temporalis muscle, topical 100 μM, n=4", "result": "3.03±0.57"},
      {"measurement": "fluorescent signal intensity of perineurium", "setting": "human sural nerve; topical 100 μM, 10 μm unfixed sections, confocal, n=4", "result": "1374.44±425.96"},
      {"measurement": "nerve binding and nerve to muscle contrast (words)", "setting": "human sural nerve; topical 100 μM, human nerve and temporalis muscle sections", "result": "highest contrast"},
      {"measurement": "fluorescent signal intensity compared to FAM-NP41", "setting": "human sural nerve; topical 100 μM, human sural nerve", "result": 10.9, "unit": "×"},
      {"measurement": "signal for binding human nerve compared to FAM-NP41", "setting": "human sural nerve; topical, human nerve", "result": 10, "unit": "fold"}
    ]}
  ]
}
